Assay results as given in patent US9133180B2, “Aurora and FLT3 kinases modulators” (SAREUM LIMITED, priority 2012, dated 2015).

Legend:
[1] = system: SW620, HCT-116, Colo205, A549, Calu-6 or HL-60 tumour xenografts; conditions: HL-60 xenograft; cited from earlier work
Aurora A kinase = Aurora A kinase (Homo sapiens (Human), UniProt O14965); assay: Aurora A kinase 33P-ATP filter assay (Reaction Biology Corp.); assay type: biochemical
Procedure: (§1) The ability of the compounds of the invention to inhibit FLT3 kinase and Aurora A and Aurora B kinases was determined using the assays described below.
(§2) Kinase assays were performed at Reaction Biology Corp., Malvern, Pa., USA, using the following general procedure:
(§3) 1) Prepare indicated substrate in freshly prepared Base Reaction Buffer (20 mM Hepes pH 7.5, 10 mM MgCl2, 1 mM EGTA, 0.02% Brij35, 0.02 mg/ml BSA, 0.1 mM Na3VO4, 2 mM DTT, 1% DMSO).
(§4) 2) Deliver cofactors (1.5 mM CaCl2, 16 ug/mL Calmodulin, 2 mM MnCl2) to the substrate solution above.
(§5) 3) Deliver indicated kinase into the substrate solution and gently mix
(§6) 4) Deliver varying concentrations of test compound in DMSO into the kinase reaction mixture.
(§7) 5) Deliver ^33P-ATP (specific activity 0.01 µCi/µL final) into the reaction mixture to initiate the reaction.
(§8) 6) Incubate kinase reaction for 120 min at room temperature.
(§9) 7) Reactions are spotted onto P81 ion exchange filter paper (Whatman #3698-915)
(§10) 8) Unbound phosphate is removed by washing filters extensively in 0.75% phosphoric acid.
(§11) 9) ^33P signal was determined using Typhoon phosphorimagers (GE Healthcare).
(§12) Substrates: Kemptide=[H-LRRASLG] Abltide=[[…]]

Aurora B kinase = Aurora B kinase (Homo sapiens (Human), UniProt Q96GD4); assay: Aurora B kinase 33P-ATP filter assay (Reaction Biology Corp.); assay type: biochemical
Sequence of Aurora B kinase (Q96GD4 whole entry): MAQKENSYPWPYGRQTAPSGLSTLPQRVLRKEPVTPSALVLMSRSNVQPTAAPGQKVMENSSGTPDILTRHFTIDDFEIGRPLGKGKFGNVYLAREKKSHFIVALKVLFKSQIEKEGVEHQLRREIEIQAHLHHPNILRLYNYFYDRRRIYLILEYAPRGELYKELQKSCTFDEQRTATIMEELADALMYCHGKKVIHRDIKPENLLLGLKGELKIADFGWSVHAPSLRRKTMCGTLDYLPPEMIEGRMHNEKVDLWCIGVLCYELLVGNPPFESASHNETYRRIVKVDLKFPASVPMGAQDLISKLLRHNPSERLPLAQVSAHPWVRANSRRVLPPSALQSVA
Procedure: as §1, §2, §3, §4, §5, §6, §7, §8, §9, §10, §11, §12

FLT3 kinase = FLT3 kinase (Homo sapiens (Human), UniProt P36888); assay: FLT3 kinase 33P-ATP filter assay (Reaction Biology Corp.); assay type: biochemical
Sequence of FLT3 kinase (P36888 27-993): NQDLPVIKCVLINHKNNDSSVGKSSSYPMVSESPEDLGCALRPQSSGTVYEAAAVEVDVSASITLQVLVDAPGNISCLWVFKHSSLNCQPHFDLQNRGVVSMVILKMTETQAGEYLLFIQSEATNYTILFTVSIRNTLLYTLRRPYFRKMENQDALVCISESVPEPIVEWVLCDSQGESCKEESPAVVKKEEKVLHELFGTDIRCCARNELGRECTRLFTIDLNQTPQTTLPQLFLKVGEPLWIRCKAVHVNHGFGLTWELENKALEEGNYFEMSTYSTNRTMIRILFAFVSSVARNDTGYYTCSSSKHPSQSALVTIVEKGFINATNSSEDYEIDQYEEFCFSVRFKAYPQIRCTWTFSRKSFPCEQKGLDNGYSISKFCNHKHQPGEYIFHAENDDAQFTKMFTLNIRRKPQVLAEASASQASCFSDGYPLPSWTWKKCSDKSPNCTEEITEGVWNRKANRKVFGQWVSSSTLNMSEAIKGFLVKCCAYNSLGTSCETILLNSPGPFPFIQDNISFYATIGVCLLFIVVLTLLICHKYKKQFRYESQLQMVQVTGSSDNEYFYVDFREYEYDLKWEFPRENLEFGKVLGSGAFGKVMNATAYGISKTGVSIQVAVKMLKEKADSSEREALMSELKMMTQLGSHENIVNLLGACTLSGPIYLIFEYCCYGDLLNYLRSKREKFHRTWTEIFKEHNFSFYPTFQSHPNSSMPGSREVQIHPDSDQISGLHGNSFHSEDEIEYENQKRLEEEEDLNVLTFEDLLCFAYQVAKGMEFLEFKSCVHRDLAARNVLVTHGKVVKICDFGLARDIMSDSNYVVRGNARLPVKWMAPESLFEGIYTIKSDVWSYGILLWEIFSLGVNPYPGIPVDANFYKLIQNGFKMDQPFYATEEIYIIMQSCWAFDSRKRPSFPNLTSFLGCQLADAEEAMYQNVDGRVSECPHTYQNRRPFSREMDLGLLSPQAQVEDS
Procedure: as §1, §2, §3, §4, §5, §6, §7, §8, §9, §10, §11, §12

HCT-116 [2] = assay: Anti-proliferative activity, Alamar Blue assay; assay type: cell-based; conditions: Homo sapiens, 96 h exposure, read-out: HCT116 96 Hrs IC50
Procedure: (§13) The anti-proliferative activities of compounds of the invention are determined by measuring the ability of the compounds to inhibit the growth of the colorectal cancer derived cell-line HCT-116. Inhibition of cell growth is measured using the Alamar Blue assay (Nociari et al., Journal of Immunological Methods (1998) 213, 157-167). The method is based on the ability of viable cells to reduce resazurin to its fluorescent product resorufin. For each proliferation assay cells are plated onto 96 well plates and allowed to recover for 16 hours prior to the addition of inhibitor compounds for a further 96 hours. At the end of the incubation period 10% (v/v) Alamar Blue is added and incubated for a further 6 hours prior to determination of fluorescent product at Excitation 535 nm and Emission 590 nm. All cell lines are obtained from ECACC (European Collection of cell Cultures).
(§14) The activities of the compounds of the invention against the human colorectal cancer cell line HCT-116 are shown the in the table below. The column headed HCT-116 96 Hrs refers to the concentration of compound required to reduce the proliferation of HCT-116 cells by 50% following a 96 h period of exposure. The column headed [Polyploidy] refers to the lowest concentration of compound required to produce a distinct polyploid phenotype, believed to be due to Aurora B inhibition.

HCT-116 [3] = assay: Polyploid phenotype in HCT-116 cells; assay type: cell-based, human
Procedure: as §13, §14

[4] = Caco-2 permeability assay; assay type: in vitro ADME; conditions: human; for Papp A→B: A2B, read-out: Caco2 A2B Papp; for Papp B→A: B2A, read-out: Caco2 B2A Papp; for efflux ratio: B2A:A2B, read-out: Caco2 Efflux ratio
Procedure: The ability of a compound to be taken up and retained by a cell can be measured by carrying out permeability studies using Caco-2 cells.
Compounds of the present invention were therefore tested in a standard Caco-2 assay and the rate of flow of the compounds into and out of the cells was determined.
In the table, the column headed “Caco-2 A2B” indicates the rate at which compound flows into the cells and the column Caco-2 B2A indicates the rate at which compound flows out of the cells. The “Efflux Ratio” is the ratio of Caco-2 B2A:Caco-2 A2B.

[5] = system: treatment-refractory primary Acute Myelogenous Leukemia (AML) cells; conditions: cells from patients; cited from earlier work
MV4-11 xenograft tumors = assay: MV4-11 xenograft study in nude mice; assay type: in vivo, Balb/c nude mouse; conditions: 100 mg/kg IP once daily, 4 cycles
Excerpt: The in vivo antitumour activity of compounds of the invention was investigated by examining the effect of the compounds of Examples 2 and 7 on tumour growth in a nude mouse xenograft model of the MV4-11 cancer cell line.
MV4-11 cell line (ATCC, USA); RPMI 1640 medium (Invitrogen, USA); FBS (Invitrogen, Australia); Balb/c nude mouse (Slac Laboratory Animal Co., Ltd., Shanghai, China): female, 18-22 g; HP-6-CD (Sigma, USA).
A total of 52 female nude mice were used. The mice were allowed 3 days of acclimatization period before starting the experiment. Mice were implanted subcutaneously (s.c.) with 200 μl of 1×10^7MV4-11 tumour cells in 50% Matrigel in the right flank at the beginning of the study. When tumours reached an average volume of 100-150 mm^3, 32 mice out of the 52 were selected based on tumour volume, and randomly assigned to 4 groups prior to dosing. Each treatment group consisted of 8 tumour-bearing animals (n=8/group).
A comparison group of mice were treated with cytarabine once daily for 5 days on, 2 days off, for 4 cycles.
Mice were weighed at each dosing and the tumour sizes recorded twice each week. Mice were observed closely for any overt signs of adverse, treatment-related side effects and these were recorded if and when they were observed.
The tumour size was measured twice weekly in two dimensions using calipers, and the volume was expressed in mm^3 using the formula: V=0.5 a×b^2 where a and b were the long and short diameters of the tumour, respectively.
Mice were euthanized by CO2 exposure after 4-cycle dose. The tumour volume, weight of dissected tumours, and the mouse body weight were measured and recorded. The tumour inhibitory rate (IR) was calculated by the formula IR=(WV−WT)/WV×100%.
The differences in tumour size between the groups were analyzed for significance using the unpaired two-tailed Student's t-test. P<0.05 was considered to be statistically significant.

Sequence of Aurora A kinase (O14965 whole entry): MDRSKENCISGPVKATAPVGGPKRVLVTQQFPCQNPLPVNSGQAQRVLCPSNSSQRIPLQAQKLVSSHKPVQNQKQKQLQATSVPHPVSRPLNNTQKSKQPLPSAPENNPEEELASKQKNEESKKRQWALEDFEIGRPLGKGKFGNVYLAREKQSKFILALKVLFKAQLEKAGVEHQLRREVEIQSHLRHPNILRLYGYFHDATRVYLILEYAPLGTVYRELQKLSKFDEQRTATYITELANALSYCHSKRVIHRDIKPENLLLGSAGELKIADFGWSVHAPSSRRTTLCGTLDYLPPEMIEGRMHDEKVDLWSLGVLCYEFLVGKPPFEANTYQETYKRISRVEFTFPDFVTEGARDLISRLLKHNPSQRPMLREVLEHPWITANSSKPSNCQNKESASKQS

SMILES | complete tumour regression (animals) [1] | IC50 (Aurora A kinase) | IC50 (Aurora B kinase) | IC50 (FLT3 kinase) | IC50 (HCT-116 [2]) | [Polyploidy] lowest concentration producing a distinct polyploid phenotype (HCT-116 [3]) | Papp A→B [4] | Papp B→A [4] | efflux ratio [4] | killing of primary AML cells [5] | effect on tumour growth (tumour volume) (MV4-11 xenograft tumors) | tumour inhibitory rate (IR) (MV4-11 xenograft tumors; 5 days on, 2 days off)
CCN(CCCOc1ccc2c(Nc3cc(CC(=O)Nc4cccc(F)c4)n[nH]3)ncnc2c1)CCOP(=O)(O)O [AZD1152] | 8 of 11 | – | – | – | – | – | – | – | – | – | – | –
CC1(C)CN(c2ccc(-c3oc(-c4c(F)ccc5[nH]ccc45)nc3C(N)=O)cc2)CCN1 [Example 1, 2-(5-Fluoro-1H-Indol-4-yl)-5-[4-(3,3-dimethyl-piperazin-1-yl)-phenyl]-oxazole-4-carboxylic acid amide] | – | 14.6 nM | 24.3 nM | 1.92 nM | 240 nM | 0.3 µM | 0.707 ×10⁻⁶ cm/s | 22.8 ×10⁻⁶ cm/s | 32.2 | – | – | –
CC1(C)CN(c2ccc(-c3oc(-c4ccc(F)c5[nH]ccc45)nc3C(N)=O)cc2)CCN1 [Example 3, 2-(7-Fluoro-1H-Indol-4-yl)-5-[4-(3,3-dimethyl-piperazin-1-yl)-phenyl]-oxazole-4-carboxylic acid amide] | – | 19.4 nM | 9.36 nM | 0.821 nM | 120 nM | 0.1 µM | 1.17 ×10⁻⁶ cm/s | 7.76 ×10⁻⁶ cm/s | 6.62 | – | – | –
CC1(C)CN(c2ccc(-c3oc(-c4ccc(Cl)c5[nH]ccc45)nc3C(N)=O)cc2)CCN1 [Example 4, 2-(7-Chloro-1H-Indol-4-yl)-5-[4-(3,3-dimethyl-piperazin-1-yl)-phenyl]-oxazole-4-carboxylic acid amide] | – | 34 nM | 13.9 nM | 0.97 nM | 260 nM | 0.3 µM | 0.64 ×10⁻⁶ cm/s | 2.76 ×10⁻⁶ cm/s | 4.32 | – | – | –
COc1ccc(-c2nc(C(N)=O)c(-c3ccc(N4CCNC(C)(C)C4)cc3)o2)c2cc[nH]c12 [Example 5, 2-(7-Methoxy-1H-Indol-4-yl)-5-[4-(3,3-dimethyl-piperazin-1-yl)-phenyl]-oxazole-4-carboxylic acid amide] | – | 20.5 nM | 8.78 nM | 0.89 nM | 87 nM | 0.1 µM | 1.36 ×10⁻⁶ cm/s | 11 ×10⁻⁶ cm/s | – | – | – | –
Cc1cc(C)c2[nH]ccc2c1-c1nc(C(N)=O)c(-c2ccc(N3CCNC(C)(C)C3)cc2)o1 [Example 6, 2-(5,7-Dimethyl-1H-Indol-4-yl)-5-[4-(3,3-dimethyl-piperazin-1-yl)-phenyl]-oxazole-4-carboxylic acid amide] | – | 88.4 nM | 19.6 nM | 1.37 nM | 160 nM | 0.1 µM | 0.514 ×10⁻⁶ cm/s | 2.08 ×10⁻⁶ cm/s | 4.04 | – | – | –
Cc1c[nH]c2cccc(-c3nc(C(N)=O)c(-c4ccc(N5CCNC(C)(C)C5)cc4)o3)c12 [Example 8, 2-(3-Methyl-1H-Indol-4-yl)-5-[4-(3,3-dimethyl-piperazin-1-yl)-phenyl]-oxazole-4-carboxylic acid amide] | – | 271 nM | 14.2 nM | 0.55 nM | – | – | 2.07 ×10⁻⁶ cm/s | 9.19 ×10⁻⁶ cm/s | 4.45 | – | – | –
CCc1ccc2[nH]ccc2c1-c1nc(C(N)=O)c(-c2ccc(N3CCNC(C)(C)C3)cc2)o1 [Example 9, 2-(5-Ethyl-1H-Indol-4-yl)-5-[4-(3,3-dimethyl-piperazin-1-yl)-phenyl]-oxazole-4-carboxylic acid amide] | – | – | – | – | – | – | 0.519 ×10⁻⁶ cm/s | 3.59 ×10⁻⁶ cm/s | 6.91 | – | – | –
CCc1ccc(-c2nc(C(N)=O)c(-c3ccc(N4CCNC(C)(C)C4)cc3)o2)c2cc[nH]c12 [Example 10, 2-(7-Ethyl-1H-Indol-4-yl)-5-[4-(3,3-dimethyl-piperazin-1-yl)-phenyl]-oxazole-4-carboxylic acid amide] | – | – | – | – | 220 nM | 0.3 µM | 0.37 ×10⁻⁶ cm/s | 2.35 ×10⁻⁶ cm/s | – | – | – | –
CC1(C)CN(c2ccc(-c3oc(-c4cccc5[nH]ccc45)nc3C(N)=O)cc2)CCN1 [Example 11, 2-(1H-Indol-4-yl)-5-[4-(3,3-dimethyl-piperazin-1-yl)-phenyl]-oxazole-4-carboxylic acid amide] | – | 46.2 nM | 15.2 nM | – | 170 nM | 0.1 µM | 2.47 ×10⁻⁶ cm/s | 12.6 ×10⁻⁶ cm/s | – | – | – | –
CC1(C)CN(c2ccc(-c3oc(-c4ccc(C(F)(F)F)c5[nH]ccc45)nc3C(N)=O)cc2)CCN1 [Example 12, 2-(7-Trifluoromethyl-1H-Indol-4-yl)-5-[4-(3,3-dimethyl-piperazin-1-yl)-phenyl]-oxazole-4-carboxylic acid amide] | – | 16 nM | 14 nM | 2.8 nM | – | – | 0.036 ×10⁻⁶ cm/s | 1.21 ×10⁻⁶ cm/s | 33.5 | – | – | –
NC(=O)c1nc(-c2cccc3[nH]ccc23)oc1-c1ccc(N2CCNCC2)cc1 [Example M-12, 2-(1H-Indol-4-yl)-5-(4-piperazin-1-yl-phenyl)-oxazole-4-carboxylic acid amide, reference compound] | – | 75 nM | 13 nM | 1.6 nM | 680 nM | 1.0 µM | 1.13 ×10⁻⁶ cm/s | 58.3 ×10⁻⁶ cm/s | 51.7 | – | – | –
Cc1cc(Nc2cc(N3CCN(C)CC3)nc(Sc3ccc(NC(=O)C4CC4)cc3)n2)n[nH]1 [VX-680] | – | – | – | – | – | – | – | – | – | potently killed | – | –
Nc1ccn([C@@H]2O[C@H](CO)[C@@H](O)[C@@H]2O)c(=O)n1 [cytarabine, reference compound] | – | – | – | – | – | – | – | – | – | – | slowed down but did not completely block the tumour growth | 66.72%
